PMC9120017, “Inhibition mechanism of the chloride channel TMEM16A by the pore blocker 1PBC” (Nature Communications, 2022)
Like-named read-outs stand apart in the source and are kept apart here.

Target: T1, mouse TMEM16A mutant T518A (Mus musculus, UniProt Q8BHY3, T518A)
T1 construct: expressed in transfected cells; host or cells: HEK293T
T1 sequence (Q8BHY3 1-960 T518A): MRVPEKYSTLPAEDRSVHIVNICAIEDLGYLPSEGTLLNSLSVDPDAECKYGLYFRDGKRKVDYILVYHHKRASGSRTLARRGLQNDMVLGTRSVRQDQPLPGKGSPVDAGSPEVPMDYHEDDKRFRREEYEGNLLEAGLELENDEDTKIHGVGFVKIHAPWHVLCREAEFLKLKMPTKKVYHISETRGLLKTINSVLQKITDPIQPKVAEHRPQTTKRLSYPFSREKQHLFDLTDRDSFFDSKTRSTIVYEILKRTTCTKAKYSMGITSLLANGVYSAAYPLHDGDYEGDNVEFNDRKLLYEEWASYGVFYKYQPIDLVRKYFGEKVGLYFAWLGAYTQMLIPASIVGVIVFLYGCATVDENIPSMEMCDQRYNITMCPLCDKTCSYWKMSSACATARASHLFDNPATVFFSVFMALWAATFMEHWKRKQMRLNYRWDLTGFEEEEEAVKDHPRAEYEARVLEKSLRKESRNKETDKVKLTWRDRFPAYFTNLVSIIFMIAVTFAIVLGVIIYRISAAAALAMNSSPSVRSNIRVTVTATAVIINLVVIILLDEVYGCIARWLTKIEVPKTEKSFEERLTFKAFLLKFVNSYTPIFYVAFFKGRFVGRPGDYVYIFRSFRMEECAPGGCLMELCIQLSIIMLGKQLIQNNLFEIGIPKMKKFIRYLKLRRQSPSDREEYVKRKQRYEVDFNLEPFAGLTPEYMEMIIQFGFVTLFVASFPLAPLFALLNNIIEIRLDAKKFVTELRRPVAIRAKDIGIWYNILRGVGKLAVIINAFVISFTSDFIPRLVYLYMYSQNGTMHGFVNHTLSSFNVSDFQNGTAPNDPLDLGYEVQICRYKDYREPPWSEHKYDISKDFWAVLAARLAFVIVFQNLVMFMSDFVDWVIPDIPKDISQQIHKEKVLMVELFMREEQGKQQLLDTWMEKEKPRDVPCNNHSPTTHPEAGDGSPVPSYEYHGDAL
Test: Inside-out patch recording of 1PBC block, mutant T518A
Type: cell-based
Conditions: for remaining activity at 1 µM: 1PBC 1; for remaining activity at 1 µM / remaining activity at 3 µM / remaining activity at 10 µM / remaining activity at 30 µM / remaining activity at 100 µM: read-out: fraction of unblocked current; for remaining activity at 3 µM: 1PBC 3; for remaining activity at 10 µM: 1PBC 10; for remaining activity at 30 µM: 1PBC 30; for remaining activity at 100 µM: 1PBC 100
Procedure: HEK293T cells (ATCC CRL-1573) were maintained in Dulbecco’s modified Eagle’s medium (DMEM; Sigma-Aldrich) supplemented with 10 U ml^−1 penicillin, 0.1 mg ml^−1 streptomycin (Sigma-Aldrich), 2 mM L-glutamine (Sigma-Aldrich), and 10% FBS (Sigma-Aldrich) in a humidified atmosphere containing 5% CO2 at 37 °C. HEK293S GnTI^− cells (ATCC CRL-3022) were maintained in HyClone HyCell TransFx-H medium (GE Healthcare) supplemented with 10 U ml^−1 penicillin, 0.1 mg ml^−1 streptomycin, 4 mM L-glutamine, 0.15% poloxamer 188 (Sigma-Aldrich), and 1% FBS in an atmosphere containing 5% CO2 at 185 rpm at 37 °C. The ac splice variant of mouse TMEM16A (UniProt ID: Q8BHY3), mouse TMEM16B (UniProt ID: Q8CFW1), or mouse TMEM16F (UniProt ID: Q6P9J9) bearing a 3C cleavage site, a Venus YFP, a Myc tag, and a Streptavidin-binding peptide (SBP) downstream of the open reading frame in a modified pcDNA3.1 vector (Invitrogen) were used as described previously[21],[31]. Mutations were introduced using a modified QuikChange method[58] and were verified by sequencing.
HEK293T cells were transfected with 3–4 μg DNA per 6 cm Petri dish using the calcium phosphate co-precipitation method and were used within 24–96 h after transfection. Recordings were performed on inside-out patches excised from HEK293T cells expressing the construct of interest. Patch pipettes were pulled from borosilicate glass capillaries (O.D. 1.5 mm, I.D. 0.86 mm, Sutter Instrument) and were fire-polished with a microforge (Narishige) before use. Pipette resistance was typically 3–8 MΩ when filled with the recording solutions detailed below. Seal resistance was typically 4 GΩ or higher. Voltage-clamp recordings were made using Axopatch 200B, Digidata 1550, and Clampex 10.7 (Molecular Devices). Analog signals were filtered with the in-built 4-pole Bessel filter at 10 kHz and were digitized at 20 kHz. Solution exchange was achieved using a gravity-fed system through a theta glass pipette mounted on an ultra-fast piezo-driven stepper (Siskiyou). […] All recordings were performed at 20 °C.
A symmetrical ionic condition was used throughout. Stock solution with Ca^2+-EGTA contained 150 mM NaCl, 5.99 mM Ca(OH)2, 5 mM EGTA, and 10 mM HEPES at pH 7.40. Stock solution with EGTA contained 150 mM NaCl, 5 mM EGTA, and 10 mM HEPES at pH 7.40. Free Ca^2+ concentrations were adjusted by mixing the stock solutions at the required ratios calculated using the WEBMAXC program (http://web.stanford.edu/~cpatton/webmaxcS.htm). Patch pipettes were filled with the stock solution with Ca^2+-EGTA, which has a free Ca^2+ concentration of 1 mM. 1PBC (ChemBridge) stock was reconstituted in anhydrous DMSO (Sigma-Aldrich) at 100 mM and stored at −20 °C. Working solutions with 1PBC were prepared by serial dilution. Unless otherwise stated, experiments were performed at a saturating Ca^2+ concentration as shown in Supplementary Table 1 and the primary data were corrected for current rundown as described previously[21],[25].
Concentration-response relations, obtained from the ratio of the I-V plots before and after the application of the blocker, were fitted to the Hill equation,1 I/Imax=1/1+IC50/[blocker]^h where I/Imax is the normalized current responses, IC50 defines the concentration at which inhibition is at its half-maximum, and h is the Hill coefficient.

Structure (SMILES): N#Cc1c(C(F)(F)F)cc(O)n2c1nc1ccccc12 [1PBC]
- IC50 (0 mV, 2 µM Ca2+): 5.67 µM
- remaining activity at 1 µM (0 mV): 82.6%
- remaining activity at 1 µM (20 mV): 78.8%
- remaining activity at 1 µM (40 mV): 75.1%
- remaining activity at 1 µM (60 mV): 71.9%
- remaining activity at 1 µM (80 mV): 70.2%
- remaining activity at 1 µM (100 mV): 70.4%
- remaining activity at 1 µM (120 mV): 72.2%
- remaining activity at 1 µM (140 mV): 76.4%
- remaining activity at 1 µM (-20 mV): 86.3%
- remaining activity at 1 µM (-40 mV): 90%
- remaining activity at 1 µM (-60 mV): 91.9%
- remaining activity at 1 µM (-80 mV): 93.5%
- remaining activity at 1 µM (-100 mV): 95.1%
- remaining activity at 1 µM (-120 mV): 96.6%
- remaining activity at 1 µM (-140 mV): 98%
- remaining activity at 3 µM (0 mV): 65.6%
- remaining activity at 3 µM (20 mV): 60.1%
- remaining activity at 3 µM (40 mV): 54.5%
- remaining activity at 3 µM (60 mV): 51%
- remaining activity at 3 µM (80 mV): 47.8%
- remaining activity at 3 µM (100 mV): 46.3%
- remaining activity at 3 µM (120 mV): 47.6%
- remaining activity at 3 µM (140 mV): 50.5%
- remaining activity at 3 µM (-20 mV): 71.2%
- remaining activity at 3 µM (-40 mV): 76.7%
- remaining activity at 3 µM (-60 mV): 81.4%
- remaining activity at 3 µM (-80 mV): 84.1%
- remaining activity at 3 µM (-100 mV): 87.3%
- remaining activity at 3 µM (-120 mV): 90.5%
- remaining activity at 3 µM (-140 mV): 92.2%
- remaining activity at 10 µM (0 mV): 36.7%
- remaining activity at 10 µM (20 mV): 31%
- remaining activity at 10 µM (40 mV): 26.8%
- remaining activity at 10 µM (60 mV): 24%
- remaining activity at 10 µM (80 mV): 22.2%
- remaining activity at 10 µM (100 mV): 21.1%
- remaining activity at 10 µM (120 mV): 21.2%
- remaining activity at 10 µM (140 mV): 22.5%
- remaining activity at 10 µM (-20 mV): 42.4%
- remaining activity at 10 µM (-40 mV): 48.9%
- remaining activity at 10 µM (-60 mV): 54.9%
- remaining activity at 10 µM (-80 mV): 59.5%
- remaining activity at 10 µM (-100 mV): 64.7%
- remaining activity at 10 µM (-120 mV): 68.5%
- remaining activity at 10 µM (-140 mV): 71.3%
- remaining activity at 30 µM (0 mV): 16.5%
- remaining activity at 30 µM (20 mV): 13.3%
- remaining activity at 30 µM (40 mV): 11.5%
- remaining activity at 30 µM (60 mV): 10.1%
- remaining activity at 30 µM (80 mV): 9.34%
- remaining activity at 30 µM (100 mV): 8.78%
- remaining activity at 30 µM (120 mV): 9.07%
- remaining activity at 30 µM (140 mV): 9.98%
- remaining activity at 30 µM (-20 mV): 19.7%
- remaining activity at 30 µM (-40 mV): 23%
- remaining activity at 30 µM (-60 mV): 27.8%
- remaining activity at 30 µM (-80 mV): 31.9%
- remaining activity at 30 µM (-100 mV): 35.9%
- remaining activity at 30 µM (-120 mV): 39.5%
- remaining activity at 30 µM (-140 mV): 43.5%
- remaining activity at 100 µM (0 mV): 6.52%
- remaining activity at 100 µM (20 mV): 4.86%
- remaining activity at 100 µM (40 mV): 3.97%
- remaining activity at 100 µM (60 mV): 3.5%
- remaining activity at 100 µM (80 mV): 3.13%
- remaining activity at 100 µM (100 mV): 2.74%
- remaining activity at 100 µM (120 mV): 2.48%
- remaining activity at 100 µM (140 mV): 2.4%
- remaining activity at 100 µM (-20 mV): 8.19%
- remaining activity at 100 µM (-40 mV): 9.29%
- remaining activity at 100 µM (-60 mV): 11.5%
- remaining activity at 100 µM (-80 mV): 13.7%
- remaining activity at 100 µM (-100 mV): 16.6%
- remaining activity at 100 µM (-120 mV): 18.8%
- remaining activity at 100 µM (-140 mV): 21.5%
- IC50 (20 mV, 2 µM Ca2+): 4.37 µM
- IC50 (40 mV, 2 µM Ca2+): 3.5 µM
- IC50 (60 mV, 2 µM Ca2+): 2.99 µM
- log-fold IC50 (change of mutant vs WT) (80 mV): 0.1093
- IC50 (80 mV, 2 µM Ca2+): 2.66 µM
- IC50 (100 mV, 2 µM Ca2+): 2.55 µM
- IC50 (120 mV, 2 µM Ca2+): 2.69 µM
- IC50 (140 mV, 2 µM Ca2+): 3.08 µM
- IC50 (-20 mV, 2 µM Ca2+): 7.32 µM
- IC50 (-40 mV, 2 µM Ca2+): 9.5 µM
- IC50 (-60 mV, 2 µM Ca2+): 12.2 µM
- IC50 (-80 mV, 2 µM Ca2+): 14.7 µM
- IC50 (-100 mV, 2 µM Ca2+): 18.1 µM
- IC50 (-120 mV, 2 µM Ca2+): 21.5 µM
- IC50 (-140 mV, 2 µM Ca2+): 25.1 µM
- IC50 (T518A, V 0 mV): 5.67 µM
- IC50 (T518A, V 20 mV): 4.37 µM
- IC50 (T518A, V 40 mV): 3.5 µM
- IC50 (T518A, V 60 mV): 2.99 µM
- IC50 (T518A, V 80 mV): 2.66 µM
- IC50 (T518A, V 100 mV): 2.55 µM
- IC50 (T518A, V 120 mV): 2.69 µM
- IC50 (T518A, V 140 mV): 3.08 µM
- IC50 (T518A, V -20 mV): 7.32 µM
- IC50 (T518A, V -40 mV): 9.5 µM
- IC50 (T518A, V -60 mV): 12.2 µM
- IC50 (T518A, V -80 mV): 14.7 µM
- IC50 (T518A, V -100 mV): 18.1 µM
- IC50 (T518A, V -120 mV): 21.5 µM
- IC50 (T518A, V -140 mV): 25.1 µM
